Patent US20130045983A1, “HSP90 INHIBITORS FOR THERAPEUTIC TREATMENT” (Novartis AG, priority 2008, published 2013)

Tests used:
Assay type in all cases: cell-based
[1] = test system: LXFE 211; experiment: Clonogenic assay, LXFE 211; conditions: Homo sapiens, Lung, non-small cell, Squamous cell carcinoma, soft agar, read-out: IC50 (colony formation)
Description: (§1) The anticancer activity of (R)-2-amino-7-[2-(6-methoxy-pyridin-2-yl)-phenyl]-4-methyl-7,8-dihydro-6H-pyrido[4,3-d]pyrimidin-5-one is evaluated in 30 human tumor xenografts in vitro using a clonogenic assay. In this assay, human cells derived from cancer patients are evaluated for the capacity of (R)-2-amino-7-[2-(6-methoxy-pyridin-2-yl)-phenyl]-4-methyl-7,8-dihydro-6H-pyrido[4,3-d]pyrimidin-5-one to inhibit the formation of 3 dimensional colonies. […] The tumor xenografts which have never been cultured in cell culture plastic dishes are isolated from nude mice. Tumor cell suspensions are prepared and incubated in 24 well plates containing layers of soft agar. Under these conditions a special subpopulation of cells selectively grows to colonies. (R)-2-amino-7-[2-(6-methoxy-pyridin-2-yl)-phenyl]-4-methyl-7,8-dihydro-6H-pyrido[4,3-d]pyrimidin-5one is tested in 6 concentrations up to 1000 nM. The tumor test panel comprises 1 to 10 models of 12 different human tumor types, which were bladder cancer, colon, gastric, non small cell lung (adeno, squamous cell, and large cell), small cell lung, mammary, ovary, and prostate cancer, as well as leukemia, lymphoma, melanoma, and sarcoma. Antitumor effects are recorded as inhibition of colony formation in relation to untreated controls. […]

[2] = test system: GTL-16; experiment: Cell proliferation assay, GTL-16 (gastric); conditions: Homo sapiens, 72 hours in presence of compound
Description: (§2) Seventeen cancer derived cell lines are used (GTL-16, N87, H1975, A549, H69, A2780, PC3, BT474, SKBR3, MCF-7, A375, MV4;11, K562, KM12L4A, H929, OPM-2 and KMS-11) to test the effect of (R)-2-amino-7-[2-(6-methoxy-pyridin-2-yl)-phenyl]-4-methyl-7,8-dihydro-6H-pyrido[4,3-d]pyrimidin-5-one. These cell lines cover the following 9 tumor types: Gastric, Lung, Ovarian, Prostate, Breast, Melanoma, Leukemia, Colon and Multiple myeloma. After division and medium change, cells from stock culture are seeded on cell plates and cultured for about 18 hours to allow cell growth and attachment before starting the assay. Then on the first day of the assay, (R)-2-amino-7-[2-(6-methoxy-pyridin-2-yl)-phenyl]-4-methyl-7,8-dihydro-6H-pyrido[4,3-d]pyrimidin-5-one is added to the medium at various concentrations. Cells are cultured up to 72 or 96 hours and cell proliferation is determined using commercially available cell proliferation kits.
(§3) Table 1 relates to the concentration in nM of (R)-2-amino-7-[2-(6-methoxy-pyridin-2-yl)-phenyl]-4-methyl-7,8-dihydro-6H-pyrido[4,3-d]pyrimidin-5-one which inhibits cell proliferation by 50% (IC50). […]

[3] = test system: SXF 1301; experiment: Clonogenic assay, SXF 1301; conditions: Homo sapiens, Sarcoma, Malignant rhabdomyosarcoma, soft agar, read-out: IC50 (colony formation)
Description: as §1

[4] = test system: MEXF 989; experiment: Clonogenic assay, MEXF 989; conditions: Homo sapiens, Amelanotic melanoma, soft agar, read-out: IC50 (colony formation)
Description: as §1

[5] = test system: MAXF 1162; experiment: Clonogenic assay, MAXF 1162; conditions: Homo sapiens, Breast, invasive ductal carcinoma, soft agar, read-out: IC50 (colony formation)
Description: as §1

[6] = test system: PRXF 22RV1; experiment: Clonogenic assay, PRXF 22RV1; conditions: Homo sapiens, Prostate carcinoma, soft agar, read-out: IC50 (colony formation)
Description: as §1

[7] = test system: LXFL 1176; experiment: Clonogenic assay, LXFL 1176; conditions: Homo sapiens, Lung, non-small cell, Mucous large cell lung carcinoma, soft agar, read-out: IC50 (colony formation)
Description: as §1

[8] = test system: PC3; experiment: Cell proliferation assay, PC3 (prostate); conditions: Homo sapiens, PC-3, 72 hours in presence of compound
Description: as §2, §3

[9] = test system: LEXF K562; experiment: Clonogenic assay, LEXF K562; conditions: Homo sapiens, Chronic myelogenous leukemia, soft agar, read-out: IC50 (colony formation)
Description: as §1

[10] = test system: H1975; experiment: Cell proliferation assay, H1975 (lung); conditions: Homo sapiens, NCI-H1975, 72 hours in presence of compound
Description: as §2, §3

[11] = test system: LYXF U937; experiment: Clonogenic assay, LYXF U937; conditions: Homo sapiens, U-937, Histiocytic lymphoma, soft agar, read-out: IC50 (colony formation)
Description: as §1

[12] = test system: MAXF 1322; experiment: Clonogenic assay, MAXF 1322; conditions: Homo sapiens, Breast, Pap. adenocarcinoma, soft agar, read-out: IC50 (colony formation)
Description: as §1

[13] = test system: MEXF 1341; experiment: Clonogenic assay, MEXF 1341; conditions: Homo sapiens, Amelanotic melanoma, soft agar, read-out: IC50 (colony formation)
Description: as §1

[14] = test system: A2780; experiment: Cell proliferation assay, A2780 (ovarian); conditions: Homo sapiens, 72 hours in presence of compound
Description: as §2, §3

[15] = test system: A375m; experiment: Cell proliferation assay, A375m (melanoma); conditions: 72 hours in presence of compound
Description: as §2, §3

[16] = test system: PRXF MRIH1579; experiment: Clonogenic assay, PRXF MRIH1579; conditions: Homo sapiens, Prostate, Adenocarcinoma, soft agar, read-out: IC50 (colony formation)
Description: as §1

[17] = test system: MAXF 574; experiment: Clonogenic assay, MAXF 574; conditions: Homo sapiens, Breast, Carcinoma, soft agar, read-out: IC50 (colony formation)
Description: as §1

[18] = test system: A549; experiment: Cell proliferation assay, A549 (lung); conditions: Homo sapiens, 72 hours in presence of compound
Description: as §2, §3

[19] = test system: PRXF DU145; experiment: Clonogenic assay, PRXF DU145; conditions: Homo sapiens, DU-145, Prostate, Adenocarcinoma, soft agar, read-out: IC50 (colony formation)
Description: as §1

[20] = test system: BT474; experiment: Cell proliferation assay, BT474 (breast); conditions: Homo sapiens, BT-474, 72 hours in presence of compound
Description: as §2, §3

COc1cccc(-c2ccccc2[C@H]2Cc3nc(N)nc(C)c3C(=O)N2)n1 [(R)-2-amino-7-[2-(6-methoxy-pyridin-2-yl)-phenyl]-4-methyl-7,8-dihydro-6H-pyrido[4,3-d]pyrimidin-5-one]
IC50 [1]: 0.76 nM | GI50 [2]: 18 nM | IC50 [3]: 26 nM | IC50 [4]: 17 nM | IC50 [5]: 6 nM | IC50 [6]: 23 nM | IC50 [7]: 21 nM | GI50 [8]: 16 nM | IC50 [9]: 13 nM | GI50 [10]: 33 nM | IC50 [11]: 28 nM | IC50 [12]: 52 nM | IC50 [13]: > 1000 nM | GI50 [14]: 27 nM | GI50 [15]: 36 nM | IC50 [16]: > 1000 nM | IC50 [17]: 316 nM | GI50 [18]: 16 nM | IC50 [19]: 17 nM | GI50 [20]: 6 nM
